In this assay the test system is FLU A (PR/8/34). The assay is described as follows: Flu A Neuraminidase Antiviral Assay. It is filed as cell-based.

Where two headings read alike, the source gives them in different places.

In patent publication US20240018145A1, “[…]-DEPENDENT EN[…] TREATING OR […]” (priority 2020, published 2024) one finds EC50 data, which are given here for 29 molecules.

`CN1C(=O)c2c(O)c(=O)ccn2N2C1CCCC21CCc2ccccc21` (single isomer, unassigned) [Compound 21B, 7-hydroxy-5-methyl-2′,3,3′,4,4a,5-hexahydro-2H-spiro[dipyrido[1,2-b:2′,1′-f][1,2,4]triazine-1,1′-indene]-6,8-dione] came in with an EC50 of 2.6 nM. In turn, `CN1C(=O)c2c(O)c(=O)ccn2N2C(c3ccccc3)C(CC3CC3(F)F)CCC12` (single isomer, unassigned) [Compound 114B, 2-((2,2-difluorocyclopropyl)methyl)-7-hydroxy-5-methyl-1-phenyl-1,2,3,4,4a,5-hexahydrodipyrido[1,2-b:2′,1′-f][1,2,4]triazine-6,8-dione] came in with a 50% effective concentration (EC50) greater than 8100 nM. The molecule `CCN1C(=O)c2c(O)c(=O)ccn2N2C(c3ccccc3F)C(CCC(F)F)CCC12` (single isomer, unassigned) [Compound 101A, 2-(3,3-difluoropropyl)-5-ethyl-1-(2-fluorophenyl)-7-hydroxy-1,2,3,4,4a,5-hexahydrodipyrido[1,2-b:2′,1′-f][1,2,4]triazine-6,8-dione] showed a concentration giving a half-maximal response (EC50) of 148 nM. Molecule `CN1C(=O)c2c(O)c(=O)ccn2N2C1CCCC2(C)c1ncccc1F` (single isomer, unassigned) [Compound 27A, 1-(3-fluoropyridin-2-yl)-7-hydroxy-1,5-dimethyl-1,2,3,4,4a,5-hexahydrodipyrido[1,2-b:2′,1′-f][1,2,4]triazine-6,8-dione] gave a half-maximal effective concentration (EC50) of 859 nM.

On to `CC1(c2ncc(F)cc2F)CCCC2N(CC(F)F)C(=O)c3c(O)c(=O)ccn3N21` (single isomer, unassigned) [Compound 47B, 5-(2,2-difluoroethyl)-1-(3,5-difluoropyridin-2-yl)-7-hydroxy-1-methyl-1,2,3,4,4a,5-hexahydrodipyrido[1,2-b:2′,1′-f][1,2,4]triazine-6,8-dione], for which the EC50 turned out to be 4380 nM. With `CN1C(=O)c2c(O)c(=O)ccn2N2C1CCCC2(C)c1cccc(F)c1` (single isomer, unassigned) [Compound 25A, 1-(3-fluorophenyl)-7-hydroxy-1,5-dimethyl-1,2,3,4,4a,5-hexahydrodipyrido[1,2-b:2′,1′-f][1,2,4]triazine-6,8-dione], the response was half-maximal at 3.5 nM (EC50).

Molecule `CCC1(c2ccccc2)CCCC2N(C)C(=O)c3c(O)c(=O)ccn3N21` (single isomer, unassigned) [Compound 22C, 1-ethyl-7-hydroxy-5-methyl-1-phenyl-1,2,3,4,4a,5-hexahydrodipyrido[1,2-b:2′,1′-f][1,2,4]triazine-6,8-dione] gave an EC50 greater than 8100 nM. For `Cc1ccccc1C1C(CCC(F)F)CCC2N(C)C(=O)c3c(O)c(=O)ccn3N12` (single isomer, unassigned) [Compound 103B, 2-(3,3-difluoropropyl)-7-hydroxy-5-methyl-1-(o-tolyl)-1,2,3,4,4a,5-hexahydrodipyrido[1,2-b:2′,1′-f][1,2,4]triazine-6,8-dione], the midpoint of the response, the EC50, lay at 5.3 nM.

Under “MDCK, 48 h”, `CN1C(=O)c2c(O)c(=O)ccn2N2[C@H](c3ccccc3)[C@H](OCc3ccc(F)c(F)c3)CC[C@@H]12` [Compound 157, (1R,2R,4aS)-2-((3,4-difluorobenzyl)oxy)-7-hydroxy-5-methyl-1-phenyl-1,2,3,4,4a,5-hexahydrodipyrido[1,2-b:2′,1′-f][1,2,4]triazine-6,8-dione] registered an EC50 of 336 nM. Still for that read-out and setting: to `COCCCO[C@@H]1CC[C@H]2N(C)C(=O)c3c(O)c(=O)ccn3N2[C@@H]1c1ccccc1` [Compound 163, (1R,2R,4aS)-7-hydroxy-2-(3-methoxypropoxy)-5-methyl-1-phenyl-1,2,3,4,4a,5-hexahydrodipyrido[1,2-b:2′,1′-f][1,2,4]triazine-6,8-dione] belongs 270 nM. For `COc1ccccc1C1C(CC(F)(F)F)CCC2N(C)C(=O)c3c(O)c(=O)ccn3N12` (single isomer, unassigned) [Compound 125B, 7-hydroxy-1-(2-methoxyphenyl)-5-methyl-2-(2,2,2-trifluoroethyl)-1,2,3,4,4a,5-hexahydrodipyrido[1,2-b:2′,1′-f][1,2,4]triazine-6,8-dione], it took 2.5 nM to reach a half-maximal effect (EC50). Same read-out and setting: to `Cc1ccccc1C1C(CC2CC2(F)F)CCC2N(C)C(=O)c3c(O)c(=O)ccn3N12` (single isomer, unassigned) [Compound 88B] belongs greater than 810 nM; to `CN1C(=O)c2c(O)c(=O)ccn2N2C(c3ccccc3)C(c3cc(F)c(F)cc3F)CCC12` (single isomer, unassigned) [Compound 86D, 7-hydroxy-5-methyl-1-phenyl-2-(2,4,5-trifluorophenyl)-1,2,3,4,4a,5-hexahydrodipyrido[1,2-b:2′,1′-f][1,2,4]triazine-6,8-dione], greater than 810 nM. Same read-out and setting: to `CCCC1CCC2N(C)C(=O)c3c(O)c(=O)ccn3N2C1(C)c1ccccc1` (single isomer, unassigned) [Compound 33C, 7-hydroxy-1,5-dimethyl-1-phenyl-2-propyl-1,2,3,4,4a,5-hexahydrodipyrido[1,2-b:2′,1′-f][1,2,4]triazine-6,8-dione] belongs 1320 nM. On the same count and under the same terms, next, `Cc1ccccc1C1N2C(CCC13CCC(F)(F)CC3)N(C)C(=O)c1c(O)c(=O)ccn12` (single isomer, unassigned) [Compound 70B, 4,4-difluoro-7′-hydroxy-5′-methyl-1′-(o-tolyl)-3′,4′,4a′,5′-tetrahydro-1′H-spiro[cyclohexane-1,2′dipyrido[1,2-b:2′,1′-f][1,2,4]triazine]-6′,8′-dione]: 2 nM. For `CC(=O)N[C@H]1CC[C@@H](c2ccccc2)N2[C@@H]1N(C)C(=O)c1c(O)c(=O)ccn12` [Compound 144, N-((1S,4S,4aS)-7-hydroxy-5-methyl-6,8-dioxo-1-phenyl-1,2,3,4,4a,5,6,8-octahydrodipyrido[1,2-b:2′,1′-f][1,2,4]triazin-4-yl)acetamide], the EC50 (MDCK, 48 h) is greater than 810 nM. In turn, `CN1C(=O)c2c(O)c(=O)ccn2N2C1CCCC21CCCc2ccccc21` (single isomer, unassigned) [Compound 32B, 7-hydroxy-5-methyl-3,3′,4,4a,4′,5-hexahydro-2H,2′H-spiro[dipyrido[1,2-b:2′,1′-f][1,2,4]triazine-1,1′-naphthalene]-6,8-dione] came in with a concentration giving a half-maximal response (EC50) of 156 nM. On the same count and under the same terms, next, `CN1C(=O)c2c(O)c(=O)ccn2N2C1CCCC21CCCc2ccccc21` (single isomer, unassigned) [Compound 32A, 7-hydroxy-5-methyl-3,3′,4,4a,4′,5-hexahydro-2H,2′H-spiro[dipyrido[1,2-b:2′,1′-f][1,2,4]triazine-1,1′-naphthalene]-6,8-dione]: greater than 8100 nM; `CN1C(=O)c2c(O)c(=O)ccn2N2C1CCC1(CC(F)(F)C1)C2c1ccccc1` (single isomer, unassigned) [Compound 74D, 3,3-difluoro-7′-hydroxy-5′-methyl-1′-phenyl-3′,4′,4a′,5′-tetrahydro-1′H-spiro[cyclobutane-1,2′-dipyrido[1,2-b:2′,1′-f][1,2,4]triazine]-6′,8′-dione]: 442 nM. Consider `CN1C(=O)c2c(O)c(=O)ccn2N2C(c3ccccc3)CCC12` (centres unmarked) [Compound 60B, 6-hydroxy-4-methyl-1-phenyl-2,3,3a,4-tetrahydro-1H-pyrido[2,1-f]pyrrolo[1,2-b][1,2,4]triazine-5,7-dione], for which the EC50 (MDCK, 48 h) worked out at 884 nM.

Under “MDCK, 48 h”, `CN1C(=O)c2c(O)c(=O)ccn2N2C1CCC1OCc3ccccc3C12C` (centres unmarked) [Compound 148, 7-hydroxy-5,12a-dimethyl-2a,3,4,4a,5,12a-hexahydro-1H-isochromeno[3′,4′:5,6]pyrido[1,2-b]pyrido[2,1-f][1,2,4]triazine-6,8-dione] returned a concentration for a half-maximal effect (EC50) of 38 nM. As for `O=C1c2c(O)c(=O)ccn2N2C(c3ccccc3)CCCC2N1CC1CC1` (single isomer, unassigned) [Compound 56C, 5-(cyclopropylmethyl)-7-hydroxy-1-phenyl-1,2,3,4,4a,5-hexahydrodipyrido[1,2-b:2′,1′-f][1,2,4]triazine-6,8-dione], the 50% effective concentration (EC50) was greater than 8100 nM. Still for that read-out and setting: next, `CN1C(=O)c2c(O)c(=O)ccn2N2C(c3ccc(F)cc3)CCCC12` (single isomer, unassigned) [Compound 2A, 1-(4-fluorophenyl)-7-hydroxy-5-methyl-1,2,3,4,4a,5-hexahydrodipyrido[1,2-b:2′,1′-f][1,2,4]triazine-6,8-dione]: 109 nM; `CN1C(=O)c2c(O)c(=O)ccn2N2C1CCC(=O)C2(C)c1ccccc1` (centres unmarked) [Compound 138A, 7-hydroxy-1,5-dimethyl-1-phenyl-3,4,4a,5-tetrahydrodipyrido[1,2-b:2′,1′-f][1,2,4]triazine-2,6,8(1H)-trione]: 19.7 nM; `CCN1C(=O)c2c(O)c(=O)cc(COC)n2N2C(c3ccccc3)C(CC(F)(F)F)CCC12` (centres unmarked) [Compound 131B, 5-ethyl-7-hydroxy-10-(methoxymethyl)-1-phenyl-2-(2,2,2-trifluoroethyl)-1,2,3,4,4a,5-hexahydrodipyrido[1,2-b:2′,1′-f][1,2,4]triazine-6,8-dione]: greater than 810 nM. With `CN1C(=O)c2c(O)c(=O)ccn2N2C(c3cccc(F)c3)C(CC(F)(F)F)CCC12` (single isomer, unassigned) [Compound 121A, 1-(3-fluorophenyl)-7-hydroxy-5-methyl-2-(2,2,2-trifluoroethyl)-1,2,3,4,4a,5-hexahydrodipyrido[1,2-b:2′,1′-f][1,2,4]triazine-6,8-dione], the 50% effective concentration (EC50) was found to be 431 nM. `CN1C(=O)c2c(O)c(=O)ccn2N2C1CCCC21CCc2ccccc21` (single isomer, unassigned) [Compound 21A, 7-hydroxy-5-methyl-2′,3,3′,4,4a,5-hexahydro-2H-spiro[dipyrido[1,2-b:2′,1′-f][1,2,4]triazine-1,1′-indene]-6,8-dione] showed an EC50 greater than 8100 nM. The same measure, in the same setting: next, `CCN1C(=O)c2c(O)c(=O)ccn2N2C(c3ccccc3)C(CCC(F)F)CCC12` (single isomer, unassigned) [Compound 110B, 2-(3,3-difluoropropyl)-5-ethyl-7-hydroxy-1-phenyl-1,2,3,4,4a,5-hexahydrodipyrido[1,2-b:2′,1′-f][1,2,4]triazine-6,8-dione]: 5.5 nM; `Cc1c(F)cccc1C1C(CC(F)(F)F)CCC2N(C)C(=O)c3c(O)c(=O)ccn3N12` (single isomer, unassigned) [Compound 80B, 1-(3-fluoro-2-methylphenyl)-7-hydroxy-5-methyl-2-(2,2,2-trifluoroethyl)-1,2,3,4,4a,5-hexahydrodipyrido[1,2-b:2′,1′-f][1,2,4]triazine-6,8-dione]: 3.3 nM.

For orientation: EC50 means the concentration at which the effect is half-maximal.
